The values below come from ChEMBL document CHEMBL1140026 (Bioorg Med Chem Lett, 2007).

This assay concerns the target cGMP-specific 3',5'-cyclic phosphodiesterase (Homo sapiens, UniProt O76074). The experiment in a line: Inhibition of PDE5.
As to `CCCOc1ccc(S(=O)(=O)N2CCC(CCC(=O)O)CC2)cc1-c1nc2c(CCC)nn(C)c2c(=O)[nH]1`, 0.0501 nM corresponded to half-maximal inhibition (IC50).

`CCCc1nn(C)c2c(=O)[nH]c(-c3cc(S(=O)(=O)N4CCN(C)CC4)cc4c3OCC4)nc12` had an IC50 of 240 nM.

With `CCCc1nn(C)c2c(=O)[nH]c(-c3cc(S(=O)(=O)N4CCN(C)CC4)cc4c3OCCO4)nc12`, the IC50 was 7.94 nM.

`CCCc1nn(C)c2c(=O)[nH]c(-c3cc(S(=O)(=O)N4CCN(CCO)CC4)cc4c3OCC4)nc12` gave an IC50 of 204 nM.

As for `CCCc1nn(C)c2c(=O)[nH]c(-c3cc(S(=O)(=O)N4CCN(CCO)CC4)cc4c3OCO4)nc12`, the concentration for half-maximal inhibition (IC50) was 331 nM.

As for `CCCc1nn(C)c2c(=O)[nH]c(-c3cc(S(=O)(=O)N4CCN(CCO)CC4)cc4c3OCCO4)nc12`, the concentration for half-maximal inhibition (IC50) is 6.31 nM.

On to `CCCc1nn(C)c2c(=O)[nH]c(-c3cc(S(=O)(=O)N4CCC(C(=O)O)CC4)ccc3OCC)nc12`, for which it took 0.513 nM to reach half-maximal inhibition (IC50).

`CCCc1nn(C)c2c(=O)[nH]c(-c3cc(S(=O)(=O)N4CCC(CC(=O)O)CC4)ccc3OCC)nc12` had an IC50 of 0.331 nM.

Take `CCCOc1ccc(NC(=O)CCC)cc1-c1nc2c(CCC)nn(C)c2c(=O)[nH]1`: half-maximal inhibition (IC50) was put at 0.269 nM.

`CCCc1nn(C)c2c(=O)[nH]c(-c3cc(S(=O)(=O)N4CCN(CCC(=O)O)CC4)ccc3OCC)nc12` had an IC50 of 0.407 nM.

As to `CCCOc1ccc(NC(=O)C(C)C)cc1-c1nc2c(CCC)nn(C)c2c(=O)[nH]1`, inhibition was half-maximal at 0.347 nM (IC50).

The molecule `CCCOc1ccc(S(=O)(=O)N2CCC(CC(=O)O)CC2)cc1-c1nc2c(CCC)nn(C)c2c(=O)[nH]1` showed an IC50 of 0.11 nM.

Molecule `CCCOc1ccc(NC(C)=O)cc1-c1nc2c(CCC)nn(C)c2c(=O)[nH]1` gave an IC50 of 0.813 nM.

The molecule `CCCc1nn(C)c2c(=O)[nH]c(-c3cc(S(=O)(=O)N4CCC(CCCC(=O)O)CC4)ccc3OCC)nc12` had an IC50 of 0.219 nM.

`CCCc1nn(C)c2c(=O)[nH]c(-c3cc(S(=O)(=O)N4CCC(CCC(=O)O)CC4)ccc3OCC)nc12` gave an IC50 of 0.151 nM.

`CCCOc1ccc(NC(=O)CC)cc1-c1nc2c(CCC)nn(C)c2c(=O)[nH]1`: 0.38 nM corresponded to half-maximal inhibition (IC50).

`CCCOc1ccc(S(=O)(=O)N2CCC(C(=O)O)CC2)cc1-c1nc2c(CCC)nn(C)c2c(=O)[nH]1` showed a half-maximal inhibitory concentration (IC50) of 0.151 nM.

Molecule `CCCOc1ccc(S(=O)(=O)N2CCC(CCCC(=O)O)CC2)cc1-c1nc2c(CCC)nn(C)c2c(=O)[nH]1` gave a half-maximal inhibitory concentration (IC50) of 0.501 nM.

In turn, `CCCOc1ccc(NC(=O)C2CCCCC2)cc1-c1nc2c(CCC)nn(C)c2c(=O)[nH]1` had an IC50 of 0.417 nM.

In the case of `CCCc1nn(C)c2c(=O)[nH]c(-c3cc(S(=O)(=O)N4CCN(CCO)CC4)cc4c3OCCC4)nc12`, half-maximal inhibition (IC50) was put at 12.6 nM.
